In PubChem BioAssay (NCI):
Several values for one entry are separate records, joined by “and”; a condition that tells them apart may be missing. Identical values can stand only once.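 These data come from cells grown in 96-well plates and exposed to compound for 48 hours at five concentrations. GI50 is the concentration that inhibits growth by half. TGI marks complete inhibition of growth.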

Columns and labels:
Experiment in all cases: NCI anticancer screen, dose series, 48 h
[1] = test system: UACC-62 melanoma
[2] = test system: SNB-75 CNS
[3] = test system: MDA-MB-231 breast
[4] = test system: UACC-257 melanoma
[5] = test system: NCI-H522 lung
[6] = test system: SW-620 colon
[7] = test system: A549 NSCLC
[8] = test system: HL-60(TB) leukemia
[9] = test system: NCI/ADR-RES ovarian
[10] = test system: OVCAR-8 ovarian

| SMILES | TGI [1] | TGI [2] | TGI [3] | TGI [4] | TGI [5] | TGI [6] | TGI [7] | TGI [8] | TGI [9] | TGI [10] | GI50 [1] | GI50 [2] | GI50 [3] | GI50 [4] | GI50 [5] | GI50 [6] | GI50 [7] | GI50 [8] | GI50 [9] | GI50 [10] |
| --- | --- | --- | --- | --- | --- | --- | --- | --- | --- | --- | --- | --- | --- | --- | --- | --- | --- | --- | --- | --- |
| CSC1(Cc2ccccn2)C(=O)Nc2cccc([N+](=O)[O-])c21 (stereo not given) | > 100 µM | > 100 µM | > 100 µM | > 100 µM | > 100 µM | > 100 µM | > 100 µM | > 100 µM | > 100 µM | > 100 µM | – | – | – | – | – | – | – | – | – | – |
| O=c1[nH]nc(Cc2ccccc2)n1C1CC1 | > 100 µM | > 100 µM | > 100 µM | > 100 µM | > 100 µM | > 100 µM | > 100 µM | > 100 µM | > 100 µM | > 100 µM | – | – | – | – | – | – | – | – | – | – |
| C=C(Cl)C(Cl)(CBr)CCC(Br)C(C)(C)Cl (stereo not given) | 12 µM and 15.2 µM and 2.68 µM | 7.12 µM and 1.69 µM and 6.97 µM | 2.92 µM and 5.94 µM and 27.2 µM | 6.07 µM and 3.81 µM and 14.1 µM | 34.9 µM and 27.1 µM and 28.9 µM | 6.08 µM and 4.35 µM and 27.7 µM | 9.99 µM and 7.54 µM and 16.7 µM | 3 µM and 3.02 µM and 6.99 µM | 7.18 µM and 4.48 µM and 33.2 µM | 5.15 µM and 2.59 µM and 17 µM | – | – | – | – | – | – | – | – | – | – |
| COc1cccc(Nc2nc(NS(=O)(=O)c3cc(C)c(Cl)cc3S)n[nH]2)c1 | > 100 µM | > 100 µM | > 100 µM | > 100 µM | > 100 µM | > 100 µM | > 100 µM | > 100 µM | > 100 µM | > 100 µM | – | – | – | – | – | – | – | – | – | – |
| CCOc1cc(/C=C/C(=O)CC(=O)/C=C/c2ccc(OC(=O)CNCCN(CC)CC)c(OCC)c2)ccc1OC(=O)CNCCN(CC)CC | 3.16 µM | 62.4 µM | 6.08 µM | 3.48 µM | 5.13 µM | 3.41 µM | 15.9 µM | 4.25 µM | 24.1 µM | 12.2 µM | 1.53 µM | 6 µM | 2.08 µM | 1.32 µM | 1.8 µM | 1.29 µM | 3.81 µM | 1.16 µM | 3.46 µM | 1.03 µM |
| CC(=O)Nc1sccc1S(=O)(=O)c1ccc(Cl)cc1 | > 100 µM | > 100 µM | > 100 µM | > 100 µM | > 100 µM | > 100 µM | > 100 µM | > 100 µM | > 100 µM | > 100 µM | – | – | – | – | – | – | – | – | – | – |
| Cn1c(SCc2c[nH]c3ccccc23)nnc1-c1ccc(Cl)cc1Cl | 39.3 µM | 25.9 µM | 66.3 µM | 56.1 µM | 45.9 µM | > 100 µM | 48.5 µM | 25.6 µM | 27.3 µM | > 100 µM | – | – | – | – | – | – | – | – | – | – |
| COc1cccc(N2C(=O)C3CC(CC(C)(C)C)c4c([nH]c5ccccc45)C3C2=O)c1 (stereo not given) | > 10 µM | 7.04 µM | > 10 µM | > 10 µM | > 10 µM | > 10 µM | > 10 µM | > 10 µM | > 10 µM | > 10 µM | – | – | – | – | – | – | – | – | – | – |
| COC(=O)[C@]1(C)[C@H]2C[C@H]3O[C@H]4[C@H](O)[C@@H](O)OC(CC(O)C(C5=CC(=O)OC5)C(C5=CC(=O)OC5)C(O)CC56CCCCC7[C@@H](C)[C@H](C[C@H]8[C@](C)(C(=O)OC)[C@H](O)CC[C@]78C)O[C@H]([C@@H](O)[C@H](O)O5)[C@H]6O)(CCCCC([C@@H]3C)[C@]2(C)CC[C@@H]1O)[C@H]4O (stereo not given in full) | 0.779 µM | 1.04 µM | 1.89 µM | 1.01 µM | 0.0558 µM | 1.78 µM | 0.182 µM | 0.348 µM | 0.286 µM | 1.2 µM | – | – | – | – | – | – | – | – | – | – |
| CC1=C2CC(C)(C)CC(=O)C2(C)CCC1=O (stereo not given) | > 100 µM | > 100 µM | > 100 µM | > 100 µM | > 100 µM | > 100 µM | > 100 µM | > 100 µM | > 100 µM | > 100 µM | – | – | – | – | – | – | – | – | – | – |
| CCOP(=O)(/C=C\n1ccc(=O)[nH]c1=O)OCC | > 100 µM | > 100 µM | > 100 µM | > 100 µM | > 100 µM | > 100 µM | > 100 µM | > 100 µM | > 100 µM | > 100 µM | – | – | – | – | – | – | – | – | – | – |
| Cc1ccc(C=C(C(=O)O)C(=O)O)o1 | > 100 µM | > 100 µM | > 100 µM | > 100 µM | > 100 µM | > 100 µM | > 100 µM | > 100 µM | > 100 µM | > 100 µM | – | – | – | – | – | – | – | – | – | – |
| Cc1cc(/N=C/c2ccc(Cl)cc2)n(-c2ccccc2)n1 | > 100 µM | > 100 µM | > 100 µM | > 100 µM | > 100 µM | > 100 µM | > 100 µM | 91.5 µM | > 100 µM | > 100 µM | – | – | – | – | – | – | – | – | – | – |
| Cc1cc(NS(=O)(=O)c2ccc(NC(=O)c3ccc4nc5ccccc5c(Nc5ccc(S(=O)(=O)Nc6cc(C)on6)cc5)c4c3)cc2)no1 | > 50 µM | > 50 µM | > 50 µM | > 50 µM | > 50 µM | > 50 µM | > 50 µM | > 50 µM | > 50 µM | > 50 µM | – | – | – | – | – | – | – | – | – | – |
| CC1=NNC(=O)[C@H]2[C@H]1CCC1[C@@H]2CC[C@]2(C)[C@@H](O)CC[C@@H]12 (stereo not given in full) | > 100 µM | > 100 µM | > 100 µM | > 100 µM | > 100 µM | > 100 µM | > 100 µM | > 100 µM | > 100 µM | > 100 µM | – | – | – | – | – | – | – | – | – | – |
| CO[C@]12C[C@@H](CNC(=O)c3cc(Br)c[nH]3)O[C@H]1NC(=O)N2 | > 100 µM | > 100 µM | > 100 µM | > 100 µM | > 100 µM | > 100 µM | > 100 µM | > 100 µM | > 100 µM | > 100 µM | – | – | – | – | – | – | – | – | – | – |
| CCCCC1Cc2cc(OC)ccc2-c2n1c1cc(OC)ccc1[n+]2C (stereo not given) (tested in a mixture with another compound) | 3.03 µM | 87.6 µM | 20.6 µM | > 34.3 µM | 6.85 µM | > 55.5 µM | > 45.7 µM | 1.71 µM | > 100 µM | 49 µM | – | – | – | – | – | – | – | – | – | – |
